Measurements published in PubChem BioAssay (NCI).
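These data come from cells grown in 96-well plates and exposed to compound for 48 hours at five concentrations. At the TGI there is no net growth.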

Key:
Test in all cases: inhibition of tumour cell growth, NCI panel, 48 h
786-0 renal = test system: 786-0 renal
A549 NSCLC = test system: A549 NSCLC
ACHN renal = test system: ACHN renal
BT-549 breast = test system: BT-549 breast
CAKI-1 renal = test system: CAKI-1 renal
CCRF-CEM leukemia = test system: CCRF-CEM leukemia
COLO 205 colon = test system: COLO 205 colon
DU-145 prostate = test system: DU-145 prostate
EKVX NSCLC = test system: EKVX NSCLC
HCC-2998 colon = test system: HCC-2998 colon
HCT-116 colon = test system: HCT-116 colon
HCT-15 colon = test system: HCT-15 colon
HOP-62 NSCLC = test system: HOP-62 NSCLC
HT29 colon = test system: HT29 colon
IGROV1 ovarian = test system: IGROV1 ovarian
K-562 leukemia = test system: K-562 leukemia
KM12 colon = test system: KM12 colon
LOX IMVI melanoma = test system: LOX IMVI melanoma
M14 melanoma = test system: M14 melanoma
MCF7 breast = test system: MCF7 breast
MDA-MB-231 breast = test system: MDA-MB-231 breast
MDA-MB-435 = test system: MDA-MB-435
MDA-N = test system: MDA-N
MOLT-4 leukemia = test system: MOLT-4 leukemia
NCI-H226 lung = test system: NCI-H226 lung
NCI-H23 lung = test system: NCI-H23 lung
NCI-H460 lung = test system: NCI-H460 lung
NCI-H522 lung = test system: NCI-H522 lung
NCI/ADR-RES ovarian = test system: NCI/ADR-RES ovarian
OVCAR-3 ovarian = test system: OVCAR-3 ovarian
OVCAR-4 ovarian = test system: OVCAR-4 ovarian
OVCAR-5 ovarian = test system: OVCAR-5 ovarian
OVCAR-8 ovarian = test system: OVCAR-8 ovarian
PC-3 prostate = test system: PC-3 prostate
RXF 393 renal = test system: RXF 393 renal
SF-268 CNS = test system: SF-268 CNS
SF-295 CNS = test system: SF-295 CNS
SK-MEL-2 melanoma = test system: SK-MEL-2 melanoma
SK-MEL-28 melanoma = test system: SK-MEL-28 melanoma
SK-MEL-5 melanoma = test system: SK-MEL-5 melanoma
SK-OV-3 ovarian = test system: SK-OV-3 ovarian
SN12C renal = test system: SN12C renal
SNB-19 CNS = test system: SNB-19 CNS
SNB-75 CNS = test system: SNB-75 CNS
SR leukemia = test system: SR leukemia
SW-620 colon = test system: SW-620 colon
T-47D breast = test system: T-47D breast
TK-10 renal = test system: TK-10 renal
U251 CNS = test system: U251 CNS
UACC-257 melanoma = test system: UACC-257 melanoma
UACC-62 melanoma = test system: UACC-62 melanoma
UO-31 renal = test system: UO-31 renal
A498 renal = test system: A498 renal
HL-60(TB) leukemia = test system: HL-60(TB) leukemia
HOP-92 NSCLC = test system: HOP-92 NSCLC
HS 578T breast = test system: HS 578T breast
MALME-3M melanoma = test system: MALME-3M melanoma
RPMI-8226 leukemia = test system: RPMI-8226 leukemia
SF-539 CNS = test system: SF-539 CNS

Measured: TGI

CC1(C)O[C@@H](CP(c2ccc3ccccc3c2)c2ccc3ccccc3c2)[C@H](CP(c2ccc3ccccc3c2)c2ccc3ccccc3c2)O1
> 100 µM: 786-0 renal | A549 NSCLC | ACHN renal | BT-549 breast | CAKI-1 renal | CCRF-CEM leukemia | COLO 205 colon | DU-145 prostate | EKVX NSCLC | HCC-2998 colon | HCT-116 colon | HCT-15 colon | HOP-62 NSCLC | HT29 colon | IGROV1 ovarian | K-562 leukemia | KM12 colon | LOX IMVI melanoma | M14 melanoma | MCF7 breast | MDA-MB-231 breast | MDA-MB-435 | MDA-N | MOLT-4 leukemia | NCI-H226 lung | NCI-H23 lung | NCI-H460 lung | NCI-H522 lung | NCI/ADR-RES ovarian | OVCAR-3 ovarian | OVCAR-4 ovarian | OVCAR-5 ovarian | OVCAR-8 ovarian | PC-3 prostate | RXF 393 renal | SF-268 CNS | SF-295 CNS | SK-MEL-2 melanoma | SK-MEL-28 melanoma | SK-MEL-5 melanoma | SK-OV-3 ovarian | SN12C renal | SNB-19 CNS | SNB-75 CNS | SR leukemia | SW-620 colon | T-47D breast | TK-10 renal | U251 CNS | UACC-257 melanoma | UACC-62 melanoma | UO-31 renal

OCC1(CNc2cc(Cl)ncn2)CCC1
> 100 µM: 786-0 renal | A498 renal | A549 NSCLC | ACHN renal | BT-549 breast | CCRF-CEM leukemia | COLO 205 colon | DU-145 prostate | EKVX NSCLC | HCT-116 colon | HCT-15 colon | HL-60(TB) leukemia | HOP-62 NSCLC | HOP-92 NSCLC | HS 578T breast | HT29 colon | IGROV1 ovarian | K-562 leukemia | KM12 colon | LOX IMVI melanoma | MALME-3M melanoma | MCF7 breast | MDA-MB-231 breast | MDA-MB-435 | MDA-N | MOLT-4 leukemia | NCI-H226 lung | NCI-H23 lung | NCI-H460 lung | NCI-H522 lung | NCI/ADR-RES ovarian | OVCAR-3 ovarian | OVCAR-4 ovarian | OVCAR-5 ovarian | OVCAR-8 ovarian | PC-3 prostate | RPMI-8226 leukemia | SF-268 CNS | SF-295 CNS | SF-539 CNS | SK-MEL-2 melanoma | SK-MEL-28 melanoma | SK-MEL-5 melanoma | SN12C renal | SNB-75 CNS | SR leukemia | SW-620 colon | TK-10 renal | U251 CNS | UACC-257 melanoma | UO-31 renal
